Data reported in US5863776A, “Method of preparing apoenzyme” (Research Development Foundation, priority 1996, dated 1999).

T1: MAO B (Homo sapiens, UniProt P27338)
T1 construct: expressed in transfected cells; host or cells: COS-7 (African green monkey), riboflavin-containing (Rib+) or riboflavin-depleted (Rib-), transient electroporation
T1 sequence (P27338 1-520): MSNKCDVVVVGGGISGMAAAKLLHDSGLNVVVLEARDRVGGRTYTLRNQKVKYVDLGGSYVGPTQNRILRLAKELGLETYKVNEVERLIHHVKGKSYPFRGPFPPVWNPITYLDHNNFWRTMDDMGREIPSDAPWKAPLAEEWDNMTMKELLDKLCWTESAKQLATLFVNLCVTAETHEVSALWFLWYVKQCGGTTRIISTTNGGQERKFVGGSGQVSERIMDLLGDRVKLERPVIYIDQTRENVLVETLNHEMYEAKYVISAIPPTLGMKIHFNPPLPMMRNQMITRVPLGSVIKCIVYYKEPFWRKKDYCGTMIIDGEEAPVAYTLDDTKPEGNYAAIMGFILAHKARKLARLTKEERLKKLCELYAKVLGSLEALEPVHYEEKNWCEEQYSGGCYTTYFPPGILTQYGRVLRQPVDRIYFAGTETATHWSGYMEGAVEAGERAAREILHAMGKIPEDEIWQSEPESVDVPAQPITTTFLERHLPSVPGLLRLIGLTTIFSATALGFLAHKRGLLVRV


Key:
[1] = target: T1, MAO B; assay: FAD coupling in intact cells: MAO B enzymatic activity after electroporation of MAO B cDNA with cofactor into Rib^- COS-7 cells ([^14 C] benzylamine substrate); type: cell-based; parameters: Percent of Holo-MAO B Activity: concentration or dose not given beside the values; conditions: for Enzymatic Activity: cofactor added with MAO B cDNA into Rib^- COS-7 cells, 48 hours, mean ± SE, three experiments; for Percent of Holo-MAO B Activity: relative to holo-MAO B expressed in Rib^+ COS-7 cells, 2880 min; for restoration of active MAO B (in words): cofactor added with MAO B cDNA during electroporation
Protocol: (§1) Wild-type or mutant MAO B cDNAs were transiently transfected into COS-7 cells by electroporation (23) as previously described (18). Briefly, Rib^+ - or Rib^- COS-7 cells were harvested during late log phase growth and resuspended to a concentration of 3.1×10^6 cells/ml in either riboflavin-containing or riboflavin-free medium, respectively. Wild-type or mutant MAO B cDNAs ([…]) were added to 0.8 ml of cell suspension. […] Electroporation was carried out in a Bio-Rad Gene Pulser with a setting of 250 V and 500 μF. Cells were resuspended in 15 ml of riboflavin-containing or riboflavin-free medium and incubated at 37° C. with 5% CO2. Transfected COS-7 cells were harvested at 48 hours and homogenized in a lysis solution containing 20 mM Tris-HCl, 1 mM EDTA, 0.5 mM PMSF, pH 8.0. The homogenate was diluted with an equal volume of the same buffer supplemented with 300 mM NaCl to obtain a 150 mM final NaCl concentration. Triton X-100 (Pierce) was added to the lysate to give a final concentration of 0.25%, and the samples were allowed to stir for 50 min. at 4° C. to extract MAO B from the outer mitochondrial membrane. After Triton extraction, the lysate was centrifuged at 1300×g for 5 min. at 4° C. to remove insoluble cell debris.
MAO B activity was assayed radiometrically by a modification of the method of Wurtman and Axelrod (26) as described previously (18). Briefly, the reaction mixture contained 200 μl of 50 mM sodium phosphate buffer (pH 7.4), 3.6 nmole of 55 mCi/mmol [^14 C] benzylamine hydrochloride (Amersham), 10 nmoles of unlabeled benzylamine and 10 μl of cell lysate. Samples were run in triplicate, and one out of each set was denatured with […] of 6N HCl prior to the addition of substrate to serve as an internal control. All reactions were incubated for 9 minutes at 37° C., and terminated by the addition of 25 μl of 6N HCl. The reaction product was extracted with 500 μl of toluene, and an aliquot (200 μl) of the organic phase from each sample was counted in liquid scintillation fluid (Bio-Safe) in a Beckman LB 3801 scintillation counter.
FMN or riboflavin were also capable of restoring approximately 75% of MAO B holoenzyme activity. However, only 40% of MAO B holoenzyme activity was obtained by the addition of 8α-hydroxyriboflavin.
Various cofactors were added with MAO B cDNA into Rib^- COS7 cells

[2] = target: T1, MAO B; assay: Quantitation of expressed MAO B protein by ELISA in transfected COS-7 cells; type: cell-based; parameters: MAO B Expressed: unit not given here; conditions: cofactor added with MAO B cDNA into Rib^- COS-7 cells; 48 hours; mean ± SE, three experiments
Protocol: Total protein concentrations of samples containing MAO B holoenzyme, apoenzyme, or variant MAO Bs were determined by a MicroBCA kit (Pierce). All samples were then adjusted to equal protein concentrations and assayed for MAO B protein by ELISA using a modification of the method of Yeomanson and Billett (25) as described previously (18).
MAO B cDNA was expressed sequentially at different time intervals in these cells during this riboflavin depletion process (FIG. 2). Each data point in FIG. 2 represents an individual expression assay. For each assay, a sample of COS-7 cells grown in riboflavin-free medium were transfected with MAO B cDNA via electroporation. Concurrently, Rib^+ COS-7 cells were transfected with MAO B cDNA to serve as a control. Following incubation for 48 hours, the cells were homogenized and assays were performed to determine protein concentration, MAO B concentration by ELISA using polyclonal antibodies, and MAO B activity using [^14 C] benzylamine.
An equal amount of MAO B cDNA (15 μg) was expressed in both types of […]

[3] = tested on: MAO B; assay: [^14 C] FAD incorporation into wild-type or mutant MAO B in Rib^- COS-7 cells (immunoprecipitation, fluorography); type: binding, human; conditions: about 59 kDa; equal MAO B concentrations
Protocol: Mutagenesis was carried out by the method of Deng and Nickoloff (22) using a Transformer Site-directed Mutagenesis kit (Clontech). Glu in position 34 was replaced with Asp (E34D), Gln (E34Q), or Ala (E34A), and Val in position 10 was replaced with Ile (V10I) as described by Kwan et al. (18).
as §1
Transfected Rib^+ - or Rib^- COS-7 cells were homogenized, and extracted with 0.25% Triton X-100 for 50 minutes at 4° C. The cell lysates were centrifuged at 1300×g for 5 minutes, and an aliqout of each supernatant was analyzed for MAO B concentration by ELISA. All supernatants were then adjusted to equal MAO B concentration and incubated with polyclonal goat anti-MAO B antibody (10 μg) overnight at 4° C. Protein-G Sepharose beads (Pierce) were added (50 μl) and incubation was continued for 3 hours. The protein-G Sepharose/goat antibody/MAO B immmunocomplex was collected by centrifugation at 10,000×g for 20 seconds and washed 6 times with 150 μl of 20 mM Tris buffer, pH 8.0. The immunocomplex was then dissolved in SDS-PAGE sample buffer and analyzed by Western blot or fluorography.
The immunoprecipitated proteins (obtained as described above) were subjected to electrophoresis in a 10% SDS-polyacrylamide gel and examined by Western blotting as previously described (18). The immunoprecipitated proteins (obtained as described above) were subjected to electrophoresis in a 10% SDS-polyacrylamide gel. The SDS-PAGE gel was fixed by soaking in 7% acetic acid, 10% methanol, 83% H2 O for 1 hour, and then processed for fluorography as described by Bonner and Laskey (27). The dried gel was exposed to Kodak X-OMAT AR film at -80° C. for 2 weeks.
The expressed wild-type and variant MAO Bs were adjusted to equal concentrations using ELISA before immunoprecipitation, and then analyzed by fluorography. The amount of incorporation of [^14 C] […] FAD was incorporated into the enzyme.

Percent of Holo-MAO B Activity [1] [%]	Percent of Holo-MAO B Activity ([1]; listed as 8α-hydroxyriboflavin) [%]	MAO B Expressed [2]	restoration of active MAO B (in words) [1]	Molecule	MAO B activity relative to that obtained with riboflavin ([1]; Rib^- COS-7 cells)	Enzymatic Activity [1]	[^14 C] FAD incorporation (band on fluorogram) [3]
39.8	40	0.95 ± 0.08		Cc1cc2nc3c(=O)[nH]c(=O)nc-3n(C[C@H](O)[C@H](O)[C@H](O)CO)c2cc1CO [8α-OH Rib, 8α-hydroxyriboflavin]	about one half of that obtained with the addition of riboflavin	0.45 ± 0.01 μmol benzylamine/minute/mg MAO	
		0.81 ± 0.17	equal levels of MAO B activity	Cc1cc2nc3c(=O)[nH]c(=O)nc-3n(C[C@H](O)[C@H](O)[C@H](O)COP(=O)(O)O)c2cc1C [FMN]		0.85 ± 0.03 μmol benzylamine/minute/mg MAO	
1.8		1.14 ± 0.06	did not yield active MAO B	NC(=O)c1ccc[n+]([C@@H]2O[C@H](COP(=O)(O)OP(=O)(O)OC[C@H]3O[C@@H](n4cnc5c(N)ncnc54)[C@H](O)[C@@H]3O)[C@@H](O)[C@H]2O)c1 [NAD^+]		0.02 ± 0.00 μmol benzylamine/minute/mg MAO	
				wild-type: wild-type MAO B expressed in Rib^- COS-7 cells (protein, UniProt P27338 2-520, looked up) Amine oxidase …: SNKCDVVVVGGGISGMAAAKLLHDSGLNVVVLEARDRVGGRTYTLRNQKVKYVDLGGSYVGPTQNRILRLAKELGLETYKVNEVERLIHHVKGKSYPFRGPFPPVWNPITYLDHNNFWRTMDDMGREIPSDAPWKAPLAEEWDNMTMKELLDKLCWTESAKQLATLFVNLCVTAETHEVSALWFLWYVKQCGGTTRIISTTNGGQERKFVGGSGQVSERIMDLLGDRVKLERPVIYIDQTRENVLVETLNHEMYEAKYVISAIPPTLGMKIHFNPPLPMMRNQMITRVPLGSVIKCIVYYKEPFWRKKDYCGTMIIDGEEAPVAYTLDDTKPEGNYAAIMGFILAHKARKLARLTKEERLKKLCELYAKVLGSLEALEPVHYEEKNWCEEQYSGGCYTTYFPPGILTQYGRVLRQPVDRIYFAGTETATHWSGYMEGAVEAGERAAREILHAMGKIPEDEIWQSEPESVDVPAQPITTTFLERHLPSVPGLLRLIGLTTIFSATALGFLAHKRGLLVRV			dark band
				V10I: control variant, Val in position 10 replaced with Ile (protein, UniProt P27338 2-520, looked up, variant V10I) Amine oxidase …: SNKCDVVVIGGGISGMAAAKLLHDSGLNVVVLEARDRVGGRTYTLRNQKVKYVDLGGSYVGPTQNRILRLAKELGLETYKVNEVERLIHHVKGKSYPFRGPFPPVWNPITYLDHNNFWRTMDDMGREIPSDAPWKAPLAEEWDNMTMKELLDKLCWTESAKQLATLFVNLCVTAETHEVSALWFLWYVKQCGGTTRIISTTNGGQERKFVGGSGQVSERIMDLLGDRVKLERPVIYIDQTRENVLVETLNHEMYEAKYVISAIPPTLGMKIHFNPPLPMMRNQMITRVPLGSVIKCIVYYKEPFWRKKDYCGTMIIDGEEAPVAYTLDDTKPEGNYAAIMGFILAHKARKLARLTKEERLKKLCELYAKVLGSLEALEPVHYEEKNWCEEQYSGGCYTTYFPPGILTQYGRVLRQPVDRIYFAGTETATHWSGYMEGAVEAGERAAREILHAMGKIPEDEIWQSEPESVDVPAQPITTTFLERHLPSVPGLLRLIGLTTIFSATALGFLAHKRGLLVRV			dark band

Molecule	Percent of Holo-MAO B Activity [1] [%]	Percent of Holo-MAO B Activity ([1]; listed as 8α-hydroxyriboflavin) [%]	MAO B Expressed [2]	restoration of active MAO B (in words) [1]	MAO B activity relative to that obtained with riboflavin ([1]; Rib^- COS-7 cells)	Enzymatic Activity [1]	[^14 C] FAD incorporation (band on fluorogram) [3]
Cc1cc2nc3c(=O)[nH]c(=O)nc-3n(C[C@H](O)[C@H](O)[C@H](O)CO)c2cc1C [Riboflavin, riboflavin]	76.1		0.90 ± 0.13	equal levels of MAO B activity		0.86 ± 0.06 μmol benzylamine/minute/mg MAO	
